These results are taken from paper PMC9046208, “Foldamers reveal and validate therapeutic targets associated with toxic α-synuclein self-assembly” (Nature Communications, 2022).

Test [1] has as its system HEK cells expressing αS-A53T-YFP. Put plainly: Intracellular seed catalyzed aggregation in HEK cells, inclusion count. The note with it: 10 µM SK-129 added 8 h after αS seeds (0.125 µM). In kind it is cell-based. Here is the method: The HEK cells (200,000 cells/mL) were plated in an µ-slide eight-well plate (300 µL/well) and incubated at 37 °C and 5% CO2 (g), and allowed to adhere to the plate for 24 h in media (DMEM, 10% FBS, 1% pen/strep). […] The HEK cells were incubated with αS fibrils for 8 h followed by the addition of 10 µM SK-129 for 300 µL media in each well (0.3 µL of 10 mM stock solution in DMSO, total DMSO = 0.1% v,v). The eight-well plate was incubated for a total of 24 h. The eight-well plate after 24 h was used for both confocal imaging and for the cytotoxicity measurements using MTT assay (2 wells/condition, 300 µL/well). In each experiment, 2 wells were used for each condition, including control (only media and DMSO), fibrils, and fibrils+SK-129.
The HEK cells in the eight-well plate were treated with a Hoechst 33342 dye solution for 1 h by adding 3 µL to each well (from 1 mg/ml solution in 1x PBS buffer). The Hoechst 33342 solution was carefully mixed with media by pipetting up and down for a few times. […] The counting of inclusions was carried out for six different experiments and for each experiment, 100 cells were counted from at least four different locations from the eight-well plate. The cells were counted manually by counting the number of Hoechst 33342 dye-stained nuclei in the cells. The inclusions in the cells were counted manually at different locations in the eight-well plate. […]

For the next test, the target named is Aβ42 (Homo sapiens, UniProt P05067). Put plainly: Fluorescence polarization titration, SK-129F with Aβ42. The test is classed as binding. The note with it: FP, higher Kd for Aβ42. How it is done:
All Fluorescence Polarization (FP) experiments were conducted on a Varian Cary Eclipse fluorometer (Agilent, Santa Clara, CA) equipped with a polarizer. The stock solutions of αS, 1 mM or 100 μM in 1x PBS buffer, were serially added into a solution of 10 μM SK-129F (300 μL in 1x PBS buffer) while stirring in a quartz cuvette (Fireflysci, Staten Island, NY). All FP measurements were conducted in triplicates in 20 mM Tris, 100 mM NaCl, pH 7.2 at 20 °C. The excitation and emissions wavelengths were set at 490 nm and 520 nm, respectively. Each titration was equilibrated for five min before measurements were taken for the next addition of αS solution. The addition of αS solution was continuous until no more change in the FP signal was observed. Similar conditions were used for the titration of various αS mutants and Aβ42 peptide against SK-129F. A stock solution of Aβ42 (1 mM or 100 μM in 1x PBS buffer on ice) was sequentially added to a solution of 10 μM SK-129F (300 μL in 1x PBS buffer) until no more change in the FP signal was observed. The polarization of each point was calculated using Eq. 1:1 FP=I∥−I⊥/I∥+I⊥ Where I∥ is fluorescence intensity parallel to the excitation plane and I⊥ is fluorescence intensity perpendicular to the excitation plane. […]

Chain of Aβ42 (P05067 672-713 limits assumed, species assumed): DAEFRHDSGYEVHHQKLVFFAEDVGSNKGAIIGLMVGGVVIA

With `COC(=O)c1cc(OCC(=O)O)c2cccc(NC(=O)c3cc(OC(C)C)c4cccc(NC(=O)c5cc(OCC(=O)O)c6cccc(NC(=O)c7cc(OC(C)C)c8cccc([N+](=O)[O-])c8n7)c6n5)c4n3)c2n1` [SK-129], the number of inclusions in test [1] (total 24 h, without SK-129 ~19) is given as 1–2 inclusions/100 cells; in test [1] (up to 4 days), 2–3 inclusions/100 cells. For the same compound, the “Kd for Aβ42 relative to αS” value at Aβ42 is given as “more than 15 fold”.
